Results as given in patent publication US20040248801A1, “Methods and reagents for regulation of cellular responses in biological systems” (priority 2000, published 2004).

Key:
B. subtilis 011085 = assay: B. subtilis capillary accumulation assay; format: cell-based, Bacillus subtilis
Excerpt: FIG. 4: Results of B. subtilis capillary accumulation assays using ROMP-derived glucose ligands (compound 5-7, Scheme 1). Buffer alone, glucose, or glucose-bearing compounds 5-7 were used as attractants in the capillary accumulation assay. Results are shown for glucose, compound 5, compound 6, and compound 7. Results are the average of at least four trials performed in duplicate and error bars represent single standard deviations.
To test the generality of the observed valency-dependent differences in chemotactic activities and to investigate the role of membrane permeability in responses to our ligands, chemotactic experiments in B. subtilis were conducted. B. subtilis is a gram-positive bacterium that, like gram-negative E. coli, is able to respond to saccharide chemoattractants. In the case of B. subtilis, the multivalent ligands can directly interact with saccharide-sensing receptors, without having to first traverse the outer membrane. Glucose is a chemoattractant for B. subtilis, but galactose is not. Glucose-carrying ligands (compounds 5-7, Scheme 1) were effective chemoattractants for B. subtilis as shown in capillary accumulation assays. […] Free chemoattractant signal glucose had maximal activity as a chemoattractant at 0.5 mM. In analogy to observations with E. coli, as the valency of the ligand increases, the saccharide residue concentration of maximum chemotaxis decreases. […] The results observed indicate that in evolutionarily divergent bacteria E. coli and B. subtilis, the valency of the attractant influences chemotactic response.
E. coli from an overnight culture were grown in LB to OD550 0.4-0.6, washed twice with E. coli chemotaxis buffer, and then partially permeabilized. Bacteria were resuspended in chemotaxis buffer to an OD550 0.1 and utilized in the capillary accumulation assay at 30° C. for 60 min, as previously described. […] Data was analyzed using the Q and Students tests.

[1] = tested on: bacterial chemoreceptors of E. coli AW405 or RP 1078 (cheW); assay: immunofluorescence microscopy of chemoreceptor organization; format: cell-based, Escherichia coli; conditions: E. coli cheW mutants, 5 mM, anti-Tsr labeling
Procedure: Fluorescence microscopy experiments were performed to visualize changes in chemotaxis receptor organization upon treatment with saccharide-carrying ligands. These experiments can determine directly whether or not multivalent ligands can influence chemoreceptor reorganization. It had been shown that wild-type E. coli localize chemoreceptors to their poles and that inactivation of the structural protein, CheW, results in a random distribution of chemoreceptors on the cell. The ability of ROMP-derived arrays to localize the chemoreceptors was examined using E. coli cheWmutants. Bacteria were treated with 1, 3, or 4, fixed, and labeled with an antibody to the bacterial chemoreceptors (anti-Tsr). […]
To confirm the ability of multivalent ligands to alter the organization of the chemoreceptors in the bacterial membrane E. coli were treated with compound 8, a galactose-bearing multivalent ligand having a fluorescent label (Scheme 1). When E. coli were treated with 8 or a fluorescein-labeled anti-Tsr antibody 14, the fluorescence patterns observed were similar. […]
E. coli AW405 or RP 1078 (cheW) were pretreated with buffer alone or with compounds 1, 3, 4, or 8 at 5 mM in a 10 μL total volume of chemotaxis buffer. […] Fluorescence microscopy was performed on a Zeiss Axioscope at 1000×using an oil immersion lens. […]

E. coli = E. coli capillary accumulation assay; format: cell-based, Escherichia coli
Procedure: FIGS. 3A and 3B: Results of E. coli capillary accumulation assays. The number of bacteria accumulated is plotted versus the concentration of the attractant (galactose or compounds 1-4, Scheme 1) calculated on a saccharide residue basis. (A): Results are shown for capillaries filled with buffer alone, compound 1, and compound 2 or (B): buffer alone, compound 3 and compound 4 at the indicated concentrations. The vertical line at 1 mM indicates the concentration of maximum chemotaxis for the monomeric compound 1. […] Results are the average of 3 to 6 experiments performed in duplicate and error bars represent a single standard deviation. Partial permeabilization was required to obtain chemotaxis towards 4, and was utilized for all experiments.
E. coli were subjected to concentration gradients of compounds 1-4 in capillary accumulation assays to determine the concentration at which the maximum chemotactic response is achieved and the number of bacteria that accumulate at this maximum.
Concentrations of maximum chemotaxis of 3 and 4 are 100- and 5000-fold lower, respectively, than free galactose (FIG. 3B). […]
E. coli from an overnight culture were grown in LB to OD550 0.4-0.6, washed twice with E. coli chemotaxis buffer, and then partially permeabilized. […] Data was analyzed using the Q and Students tests.

O=C(NCCOC1OC(CO)C(O)C(O)C1O)C1C[C@@H]2C=CC1C2 (stereo partly shown) [Compound 1]
chemoattractant activity for B. subtilis (B. subtilis 011085): not chemoattractants | effect on chemoreceptor distribution [1]: no effect on receptor distribution | chemoattractant activity in mutants (E. coli; ggbp (AW550 and AW543) or trg (AW701) E. coli mutants): not a chemoattractant | concentration of maximum chemotaxis (E. coli; saccharide (galactose) residue basis, partially permeabilized E. coli, 30° C., 60 min): 1 mM
